Results on four compounds are retold here after patent US20030207843A1, “Treatment of drug-resistant human immunodeficiency virus infection” (priority 1999, published 2003).

Structures are written as SMILES. Values joined by “and” are separate entries in the source; they are usually repeats but may differ in a detail not shown here. Equal values may be shown once.

What all share (assay type): cell-based
Assay [1] concerns HIV-1LAI selected with PFA, passage 17 (W88G). Put plainly: Susceptibility of virus selected in vitro with PFA, passage 17. The procedure:
(§1) Antiviral Susceptibility Assays. The antiviral activity of each compound was determined by inoculating MT-2 cells with HIV-1LAI at a multiplicity of infection (MOI) of 0.01 TCID50/cell, followed by incubation in the presence of three-fold serial drug dilutions (3 wells per dilution) (see Mellors, et. al., Antimicrob. Agents Chemother. 39:1087-1092). Five or seven days after infection, culture supernatants were harvested, lysed with 0.5% triton-X 100 and assayed for p24 antigen concentration using a commercial ELISA assay (DuPont, NEN Products, Wilmington, Del.). The antiviral activity of the compounds is expressed as the IC50, which is the concentration required to inhibit 50% of p24 antigen production. The fold-resistance of a test virus is calculated by dividing the IC50 of the test virus by the IC50 of the HIV-1LAI control virus.
(§2) Selection of Resistant Viruses. […] Viral cytopathic effects (CPE) were monitored daily. […] The passaged virus was monitored regularly for a reduction in susceptibility to the compounds by determining the EC50 relative to unpassaged HIV-1LAI (Mellors, et. al., Antimicrob. Agents Chemother. 39:1087-1092). […]
(§3) As controls for the invention compound selections, HIV-1LAI was passaged in the presence and absence of unmodified PFA. […] None of the mutations selected by the invention compounds or free PFA were detected in control viruses passaged in the absence of drug.

Assay [2] has as its system panel of drug resistant HIV-1 viruses. The assay can be described thus: p24 reduction assay, panel of drug resistant HIV-1 viruses (summary). Conditions: Human immunodeficiency virus 1, read-out: EC50 values (range over strains).
Experimental: The μM concentration required to produce 50% inhibition of replication of the drug-resistant strain of HIV (EC50) was determined as shown in Table 1. Drug effects were measured by assaying p24 (a viral protein) in the culture medium.
Assay [3] has as its system HIV-1LAI selected with PFA, passage 15 (S117T). Put plainly: Susceptibility of virus selected in vitro with PFA, passage 15. How it is done:
as §1, §2, §3

In another assay the test system is HIV-1LAI M164I/4XAZT. The assay can be described thus: p24 reduction assay in MT-2 cells, M164I/4XAZT. As to conditions: Table 8. The procedure: (§4) Cells. MT-2 cells (AIDS Research and Reference Reagent Program, National Institute of Allergy and Infectious Diseases, National Institutes of Health) were maintained in RPMI 1640 supplemented with 10% fetal bovine serum (FBS; JRH Biosciences, Lenexa, Kans.), 10 mM HEPES buffer, 50 IU/ml penicillin and 50 μg/ml streptomycin.
as §1
(§5) Generation of Mutant Recombinant HIV-1. […]
(§6) Recombinant viruses containing the mutations selected by invention compounds were also evaluated for their susceptibility to AZT, as shown in Table 8.

The subject of a further assay is HIV-1LAI S117T/4XAZT. Put plainly: p24 reduction assay in MT-2 cells, S117T/4XAZT. Conditions: Table 8. How it is done: as §4, §1, §5, §6
For the next assay, the system named is HIV-1LAI M164I. The assay can be described thus: p24 reduction assay in MT-2 cells, M164I. As to conditions: Table 8. The procedure: as §4, §1, §5, §6
The next assay deals with HIV-1LAI S117T/L214F. Put plainly: p24 reduction assay in MT-2 cells, S117T/L214F. Conditions: Table 8. How it is done: as §4, §1
Generation of Mutant Recombinant HIV-1. HIV-1 containing the desired mutations were generated by oligonucleotide directed mutagenesis (Altered Sites II, Promega) as previously described (Mellors, et. al., Molecular Pharm. 41:446-451). After mutagenesis, mutant RT was subcloned into the pxxHIV-1LAI cloning vector using the silent XmaI and XbaI restriction sites located at the 5′ and 3′ ends of RT. Clones were DNA sequenced to verify the presence of the desired mutation(s) and electroporated into MT-2 cells as described above to generate infectious mutant recombinant HIV-1.
Mutant RT was generated via oligonucleotide-directed mutagenesis and ligated into the pXXHIV-1LAI cloning vector. […]
as §6

For the next assay, the system named is HIV-1LAI L214F. The assay can be described thus: p24 reduction assay in MT-2 cells, L214F. Conditions: Table 8. The procedure:
as §4, §1, §5, §6

The test system of assay [4] is HIV-1LAI selected with MB-PFA, passage 15. The assay can be described thus: Susceptibility of virus selected in vitro with MB-PFA. How it is done: as §1
Selection of Resistant Viruses. Selections were initiated by inoculating 1.0×10^6 MT-2 cells at an MOI of 0.1 with plasmid derived HIV-1LAI which had been passaged as cell-free virus 10 times in MT-2 cells in the absence of compound (see Bazmi, et. al., Antimicrobial Agents and Chemotherapy 44:1783-1788). Cells were pretreated with drug for two hours prior to inoculation with virus. For each selection, the starting concentration was the IC50 of the compound, and the selective pressure (i.e. drug concentration) was doubled every three passages. Viral cytopathic effects (CPE) were monitored daily. At 2+CPE (≧2 syncitia per 100× field) cell free virus supernatant was harvested and used to initiate a new cycle of infection in fresh MT-2 cells. The passaged virus was monitored regularly for a reduction in susceptibility to the compounds by determining the EC50 relative to unpassaged HIV-1LAI (Mellors, et. al., Antimicrob. Agents Chemother. 39:1087-1092).
Genetic Analyses. Virions were pelleted from culture supernatants by centrifugation at 25,000×g for 1 hour. Total RNA was extracted from the virus pellet using TRIZOL® Reagent (Gibco BRL, Grand Island, N.Y.) and resuspended in diethyl pyrocarbonate-treated sterile water. […]

The test system of assay [5] is HIV-1LAI selected with EB-PFA, passage 15 (W88G, L214F). The assay can be described thus: Susceptibility of virus selected in vitro with EB-PFA. The procedure: as §1, §2
Setting [6] is: Table 6, passage 15, relative to passage 0.

The EC50 is the concentration needed to bring the measured effect to its halfway point. With `O=C(O)P(=O)(O)O` [PFA, phosphonoformate, reference compound], the EC50 in [1] (Human immunodeficiency virus 1, Table 6, passage 17 (W88G)) is 122 µM; in [2], 7.6 to 37.4 µM; in assay [3] (Human immunodeficiency virus 1, Table 6, passage 15 (S117T)), 122 µM. The Fold resist. was 23 and 23.2 in assay [1] (Table 6, passage 17, relative to passage 0); 23 and 23.2 in assay [3] (setting [6]).

For `Cc1cn([C@H]2C[C@H](N=[N+]=[N-])[C@@H](CO)O2)c(=O)[nH]c1=O` [AZT, 3′-Azido-3′-deoxythymidine], the 50% effective concentration (EC50) in the assay on HIV-1LAI M164I/4XAZT (Human immunodeficiency virus 1, MT2, M164I/4XAZT, read-out: AZT EC50) was 43 ± 22 nM; in the assay with HIV-1LAI S117T/4XAZT (Human immunodeficiency virus 1, MT2, S117T/4XAZT, read-out: AZT EC50), 40 ± 6 nM; with HIV-1LAI M164I (Human immunodeficiency virus 1, MT2, M164I, read-out: AZT EC50), 12 ± 4 nM; in the assay with HIV-1LAI S117T/L214F (Human immunodeficiency virus 1, MT2, S117T/L214F, read-out: AZT EC50) it was 22 ± 10 nM; in the assay on HIV-1LAI L214F (Human immunodeficiency virus 1, MT2, L214F, read-out: AZT EC50), 35 ± 33 nM. Besides, the Fold resistance in the assay on HIV-1LAI M164I/4XAZT (M164I/4XAZT relative to wild type virus) was found to be 1.1; in the assay with HIV-1LAI S117T/4XAZT (S117T/4XAZT relative to wild type virus) it was 1.4; in the assay on HIV-1LAI M164I (M164I relative to wild type virus) it was 0.6; in the assay with HIV-1LAI S117T/L214F (S117T/L214F relative to wild type virus), 1.1; in the assay with HIV-1LAI L214F (L214F relative to wild type virus), 1.7.

For `CCCCCCCCCCCCCCCCCCOC[C@H](COP(=O)(O)C(=O)O)OC` [MB-PFA, 1-O-octadecyl-2-O-methyl-sn-glycero-3-PFA], in assay [4] (Example 6, repeated selection, after 15 passages (M164I and L214 mutations, not V75L)), the Fold resistance came to 31 fold. This compound also yielded an EC50 in assay [4] (Table 6, MB-PFA-selected virus, passage 15 (V75L, M164I, L214F)) of 2160 nM. In addition, the Fold resist. in [4] (Table 6, MB-PFA-selected virus, passage 15, relative to passage 0) was 27 and 30.9.

`CCCCCCCCCCCCCCCCCCOC[C@H](COP(=O)(O)C(=O)O)OCC` [EB-PFA, 1-O-octadecyl-2-O-ethyl-sn-glycero-3-PFA] showed a concentration for a half-maximal effect (EC50) in assay [5] (Table 6, passage 15 (W88G, L214F)) of 3.7 µM. In assay [5] (setting [6]), the Fold resist. is 41 and 41.1.
